The values below come from ChEMBL document CHEMBL6078680, “Improving the Stability and Anti-Infective Activity of Sea Turtle AMPs Using Multiple Structural Modification Strategies” (J Med Chem, 2024).

Data set [1] relates to Escherichia coli. The data set is described as follows: Drug resistance, ratio of MIC for Escherichia coli ATCC 25922 after 40 passages to MIC for Escherichia coli ATCC 25922 during first exposure. It is filed as functional.
Data set [2] is described as follows: Hemolytic activity at human Erythrocyte assessed as hemolysis at 100 microg/ml. Format: toxicity, cell-based. The conditions noted are these: erythrocytes, at 100 µg/mL, read-out: Activity.
Data set [3] concerns Peritoneal macrophage. The data set is described as follows: Cytotoxicity against mouse Peritoneal macrophage cells assessed as survival rate at 100 microg/ml. Format: functional. The note with it: read-out: Survival.
The subject of a further data set is HaCaT. The data set is described as follows: Cytotoxicity against human HaCaT cells assessed as survival rate at 100 microg/ml. Format: functional. The conditions noted are these: read-out: Survival.
In data set [4] the test system is Peritoneal macrophage. Briefly: Antiinflammatory activity in mouse Peritoneal macrophage cells assessed as inhibition of LPS-induced TNF-alpha production at 20 microg/ml incubated for 6 hrs by ELISA analysis. It is filed as functional, cell-based. The note with it: dose 20.0 µg/ml. (An ELISA detects its analyte on a solid surface through an enzyme-linked reagent.)

Data set [5] relates to Peritoneal macrophage. Briefly: Antiinflammatory activity in mouse Peritoneal macrophage cells assessed as inhibition of LPS-induced IL-6 production at 20 microg/ml incubated for 6 hrs by ELISA analysis. Format: functional, cell-based. The conditions noted are these: dose 20.0 µg/ml.
Data set [6] has as its system Escherichia coli. The data set is described as follows: Antimicrobial activity against Escherichia coli ATCC 25922 measured at 8 hrs in presence of mouse serum. It is filed as functional, organism-based.
Data set [7] concerns Staphylococcus aureus. The data set is described as follows: Antimicrobial activity against Staphylococcus aureus CMCC 26003 measured at 8 hrs in presence of mouse serum. It is filed as functional, organism-based.
The test system of data set [8] is Staphylococcus aureus. The data set is described as follows: Antimicrobial activity against Staphylococcus aureus CMCC 26003 at 5 times MIC measured at 180 mins. Format: functional, organism-based.
A further data set deals with 4T1. Briefly: Cytotoxicity against mouse 4T1 cells assessed as survival rate at 100 microg/ml. Format: functional. The note with it: read-out: Survival.
A further data set concerns B16-F10. The data set is described as follows: Cytotoxicity against mouse B16-F10 cells assessed as survival rate at 100 microg/ml. Format: functional. The conditions noted are these: read-out: Survival.
Data set [9] concerns Peritoneal macrophage. The data set is described as follows: Cytotoxicity against mouse Peritoneal macrophage cells assessed as decrease in cell number at 20 microg/ml. Format: functional, cell-based. The note with it: dose 20.0 µg/ml.
The nature of data set [10]: Acute toxicity in BALB/c mouse assessed as mortality at 10 mg/kg, iv measured for 24 hrs. Format: organism-based. The note with it: in vivo, read-out: Activity.
Data set [11] in a line: Acute toxicity in BALB/c mouse assessed as mortality at 15 mg/kg, iv measured for 24 hrs. It is filed as organism-based. The note with it: in vivo, read-out: Activity.
Data set [12] can be described thus: Acute toxicity in BALB/c mouse assessed as mortality at 20 mg/kg, iv measured for 24 hrs. Format: organism-based. The conditions noted are these: in vivo, read-out: Activity.
Data set [13] can be described thus: Acute toxicity in BALB/c mouse assessed as mortality at 50 mg/kg, iv measured for 24 hrs. It is filed as organism-based. The note with it: in vivo, read-out: Activity.
A further data set deals with Trypsin (Homo sapiens, UniProt P07477+P07478+P35030). The data set is described as follows: Stability of compound assessed as trypsin (unknown origin) mediated drug degradation […] measured at 24 hrs by RP-HPLC analysis. It is filed as ADME, protein assay. The note with it: read-out: Activity.
For another data set, the system named is Acinetobacter baumannii. Briefly: Antibiofilm activity against Acinetobacter baumannii ATCC 19606 assessed as inhibition of biofilm formation at 0.5 times MIC incubated for 48 hrs by crystal violet staining based analysis. Format: functional.
Data set [14] concerns Staphylococcus aureus. The data set is described as follows: Antibiofilm activity against Staphylococcus aureus CMCC 26003 assessed as biofilm eradication at 0.5 to 2 times MIC incubated for 24 hrs by crystal violet staining based analysis. Format: functional.
Data set [15] concerns Staphylococcus aureus. The data set is described as follows: Antipersister-activity against Staphylococcus aureus CMCC 26003 assessed as elimination of persister cells at 50 times MIC preincubated adherent persistent cells with colistin incubation for 24 hrs. Format: functional.
The nature of data set [16]: Acute toxicity in BALB/c mouse assessed as effect on BUN level at 10 mg/kg, iv measured for 24 hrs. Format: organism-based. The note with it: in vivo.

Active and inactive are the calls of the source. The calls are words filed in the database; no cut-off is given here. Positions of bridges follow the written chain, without caps; N, C: chain ends. Non-standard residues stand in square brackets, D forms with d. Residues, ends and D or L forms follow the SMILES beside them. *: point of attachment. X3 = CC[C@H](C)CCCCC(=O)*; Dab = NCC[C@H](N)C(=O)O

As for `C[C@@H](O)[C@H]1C(=O)N2C(C(=O)O)=C(S[C@@H]3CN[C@H](C(=O)N(C)C)C3)[C@H](C)[C@H]12` [MEROPENEM], the Ratio with Escherichia coli [1] amounted to 64.

In the case of `CC[C@H](C)[C@@H]1NC(=O)[C@H](CCCNC(=N)N)NC(=O)[C@H](CO)NC(=O)[C@@H](NC(=O)[C@H](Cc2c[nH]cn2)NC(=O)[C@H](CCCNC(=N)N)NC(=O)[C@H](CC(C)C)NC(=O)[C@@H](NC(=O)[C@H](CCCNC(=N)N)NC(=O)CNC(=O)[C@H](CC(C)C)NC(=O)[C@H](CCC(N)=O)NC(=O)[C@H](CCCCN)NC(=O)[C@H](CCCNC(=N)N)NC(=O)[C@@H](NC(=O)[C@H](CCCCN)NC(=O)[C@H](CCCCN)NC(=O)[C@@H](N)Cc2ccccc2)C(C)C)C(C)C)CSSC[C@@H](C(=O)O)NC(=O)[C@H](Cc2ccccc2)NC(=O)[C@H](CCCNC(=N)N)NC(=O)[C@H](CCSC)NC(=O)[C@H](CCCNC(=N)N)NC(=O)CNC(=O)CNC(=O)[C@H](C(C)C)NC(=O)[C@H]([C@@H](C)O)NC1=O` (H-FKKVRKQLGRVLRHCSRITVGGRMRFC-OH; disulfide 15-27), the hemolysis at 100 microg/ml in data set [2] was under 5%. The viability at 100 µg/mL with Peritoneal macrophage [3] and with HaCaT was over 80% in each case. For the same compound, the outcome in the data set with Peritoneal macrophage [4] and in the data set with Peritoneal macrophage [5] was Active. In addition, the result with Escherichia coli [6], with Staphylococcus aureus [7] and in the data set on Staphylococcus aureus [8] was inactive.

Consider H-RRSRFGRFFKKVRKQLGRVLRHSRITVGG-NH2, for which the viability at 100 µg/mL with 4T1 was under 40%; in the data set with B16-F10, under 40%; with Peritoneal macrophage [3], 80%; in the data set on HaCaT, 80%. Moreover, the outcome with Peritoneal macrophage [4], in the data set on Peritoneal macrophage [5] and in the data set with Peritoneal macrophage [9] was Active. Moreover, the result in the data set on Staphylococcus aureus [8] was inactive.

Consider `CC(C)CCCCC(=O)N[C@@H](CCN)C(=O)N[C@H](C(=O)N[C@@H](CCN)C(=O)N[C@H]1CCNC(=O)[C@H]([C@@H](C)O)NC(=O)[C@H](CCN)NC(=O)[C@H](CCN)NC(=O)[C@H](CC(C)C)NC(=O)[C@@H](Cc2ccccc2)NC(=O)[C@H](CCN)NC1=O)[C@@H](C)O.CC[C@H](C)CCCCC(=O)N[C@@H](CCN)C(=O)N[C@H](C(=O)N[C@@H](CCN)C(=O)N[C@H]1CCNC(=O)[C@H]([C@@H](C)O)NC(=O)[C@H](CCN)NC(=O)[C@H](CCN)NC(=O)[C@H](CC(C)C)NC(=O)[C@@H](Cc2ccccc2)NC(=O)[C@H](CCN)NC1=O)[C@@H](C)O` (X3-[Dab]T[Dab][Dab][Dab][dF]L[Dab][Dab]T; lactam 4-C), for which the mortality at 24 h came out at 50% in [10], 100% in data set [11], 100% in data set [12] and 100% in data set [13].

Take H-RRSRFGRFFKKVRKQLGRVLRHSRITV-NH2: the viability at 100 µg/mL is under 40% in the data set with 4T1, under 40% in the data set with B16-F10, 80% in the data set on Peritoneal macrophage [3] and 80% in the data set with HaCaT. Besides, the result with Peritoneal macrophage [4], in the data set with Peritoneal macrophage [5] and with Peritoneal macrophage [9] was Active. Moreover, the result in the data set with Staphylococcus aureus [8] was inactive.

On to H-RRSRFGRFFKKVRKQLGRVLRHS-NH2, for which the viability at 100 µg/mL in the data set on 4T1 was under 40%; in the data set on B16-F10 it was under 40%; in the data set with Peritoneal macrophage [3] it was 80%; in the data set with HaCaT, 80%. For the same compound, the result in the data set on Peritoneal macrophage [4], in the data set on Peritoneal macrophage [5] and with Peritoneal macrophage [9] was Active. Moreover, the result in the data set on Staphylococcus aureus [8] was inactive.

Consider H-RRSRFGRFFKKVRKQLGRVLR-NH2, for which the viability at 100 µg/mL is under 40% in the data set on 4T1, under 40% with B16-F10, 80% in the data set on Peritoneal macrophage [3] and 80% in the data set with HaCaT. Further, the outcome in the data set with Peritoneal macrophage [4], in the data set on Peritoneal macrophage [5] and in the data set on Peritoneal macrophage [9] was Active. The result with Staphylococcus aureus [8] was inactive.

Take `CC[C@@H](C)[C@@H](NC(=O)[C@@H](CCCNC(=N)N)NC(=O)[C@@H](CO)NC(=O)[C@@H](Cc1c[nH]cn1)NC(=O)[C@@H](CCCNC(=N)N)NC(=O)[C@@H](CC(C)C)NC(=O)[C@H](NC(=O)[C@@H](CCCNC(=N)N)NC(=O)CNC(=O)[C@@H](CC(C)C)NC(=O)[C@@H](CCC(N)=O)NC(=O)[C@@H](CCCCN)NC(=O)[C@@H](CCCNC(=N)N)NC(=O)[C@H](NC(=O)[C@@H](CCCCN)NC(=O)[C@@H](CCCCN)NC(=O)[C@H](N)Cc1ccccc1)C(C)C)C(C)C)C(=O)N[C@@H](C(=O)N[C@@H](C(=O)NCC(=O)NCC(=O)N[C@H](CCCNC(=N)N)C(=O)N[C@H](CCSC)C(=O)N[C@H](CCCNC(=N)N)C(=O)N[C@H](Cc1ccccc1)C(=O)O)C(C)C)[C@H](C)O`: the hemolysis at 100 microg/ml in [2] is under 5%. Further, the outcome in the data set on Peritoneal macrophage [4] and in the data set on Peritoneal macrophage [5] was Active. The metabolised at 24 h on Trypsin was under 60%. Moreover, the result in the data set on Staphylococcus aureus [8] was inactive. In addition, in the data set on Acinetobacter baumannii, the “inhibition (INH)” value turned out to be 10%. In addition, the values for the Activity with Staphylococcus aureus [14] and in the data set on Staphylococcus aureus [15] were 20% and 50%, respectively.

Take H-RRSRFGRFFKKVRKQLGRVLRHSRITVGGRM-NH2: the viability at 100 µg/mL in the data set on 4T1 is under 40%; in the data set with B16-F10, under 40%; with Peritoneal macrophage [3], 80%; in the data set on HaCaT, 80%. In addition, the result with Peritoneal macrophage [4], with Peritoneal macrophage [5] and with Peritoneal macrophage [9] was Active. In the data set with Staphylococcus aureus [8], the result was inactive.

For `CC[C@H](C)[C@H](NC(=O)[C@H](CCCNC(=N)N)NC(=O)[C@H](CO)NC(=O)[C@H](Cc1c[nH]cn1)NC(=O)[C@H](CCCNC(=N)N)NC(=O)[C@@H]1CSSC[C@H](NC(=O)[C@H](CCCCN)NC(=O)[C@@H](N)Cc2ccccc2)C(=O)N[C@@H](CCCCN)C(=O)N[C@@H](C(C)C)C(=O)N[C@@H](CCCNC(=N)N)C(=O)N[C@@H](CCCCN)C(=O)N[C@@H](CCC(N)=O)C(=O)N[C@@H](CC(C)C)C(=O)NCC(=O)N[C@@H](CCCNC(=N)N)C(=O)N[C@@H](C(C)C)C(=O)N[C@@H](CC(C)C)C(=O)N1)C(=O)N[C@H](C(=O)N[C@H](C(=O)NCC(=O)NCC(=O)N[C@@H](CCCNC(=N)N)C(=O)N[C@@H](CCSC)C(=O)N[C@@H](CCCNC(=N)N)C(=O)N[C@@H](Cc1ccccc1)C(=O)O)C(C)C)[C@@H](C)O` (H-FKCKVRKQLGRVLCRHSRITVGGRMRF-OH; disulfide 3-14), the hemolysis at 100 microg/ml in [2] is under 5%. The viability at 100 µg/mL with Peritoneal macrophage [3] and in the data set with HaCaT was over 80% in each case. Moreover, the outcome in the data set with Peritoneal macrophage [4] and in the data set on Peritoneal macrophage [5] was Active. In addition, the result with Staphylococcus aureus [7] and in the data set with Staphylococcus aureus [8] was inactive. The Activity result in [16] is given as “Non-toxic”.

As to H-RRSRFGRFFKKVRKQLGRVLRHSRI-NH2, the viability at 100 µg/mL is under 40% with 4T1, under 40% in the data set on B16-F10, 80% with Peritoneal macrophage [3] and 80% with HaCaT. The result in the data set on Peritoneal macrophage [4], with Peritoneal macrophage [5] and with Peritoneal macrophage [9] was Active. Besides, the outcome in the data set with Staphylococcus aureus [8] was inactive. Moreover, the Ratio in the data set with Escherichia coli [1] turned out to be 1.
